In patent EP0664704B1, “USE OF DOPAMINE AGONISTS TO ACTIVATE GAMMA-[…]” (SCHERING AKTIENGESELLSCHAFT, priority 1992, dated 1994):

Columns and labels:
[1] = Six-month continuous s.c. infusion at extremely high dose in monkeys; format: in vivo, Affen; details: monkey, 1 mg/kg/Tag s.c. infused continuously over 6 months (10-fold maximal human dose)
IFN-γ = assay: PHA-stimulated IFN-γ release in blood of patients treated with subcutaneous lisuride, ELISA of supernatant; format: in vivo, Patienten
Method: (§1) Wir untersuchten die mitogen-induzierte Zytokinfreisetzung von 18 Patienten, die wegen M. Parkinson (n=13) oder Dystonie (n=5) mit subkutanem Lisurid behandelt wurden. 18 Patienten wurden mit 11 gesunden altersgleichen Kontrollen verglichen. Nach mitogener Stimulation mit 50 µl Phythämagglutinin (PHA) (5 µg/ml) über 24 h (TNF-α) bzw. 72h (IFN-γ) wurden TNF-α und IFN-γ im Überstand mit einem Elisa Assay (Gallati 1987) bestimmt: Da die Daten nicht normal verteilt sind, wurde der Mann-Whitney-Test zur Analyse der Gruppenmittelwerte gerechnet. Es fanden sich folgende Ergebnisse:
(§2) Es wurde dieselbe Lisurid-Gruppe (n=18) wie o.a. mit zwei Gruppen gesunder Freiwilliger verglichen: Einer Gruppe junger (Alter unter 50 Jahre) und mit einer Gruppe älterer Gesunder (Alter über 65 Jahre). Die Zytokinmessung und statistische Auswertung erfolgte wie oben erwähnt. […] Dies legt den Schluß nahe, daß die alterskorreliert abnehmende IFN-γ und TNF-α Produktion durch dopaminerge Therapie antagonisiert werden kann.
(§3) Den Daten ist zu entnehmen, daß durch die Behandlung mit Lisurid nach Stimulation eine vermehrte Freisetzung von IFN-γ und TNF-α erfolgt. Die Freisetzung der Cytokine ist erst in vitro in einer Kurzzeit-Kultur des Vollblutes entstanden. In der Kontrollgruppe ohne PHA Zugabe ließ sich kein IFN-γ nachweisen. […]

TNF-α = assay: PHA-stimulated TNF-α release in blood of patients treated with subcutaneous lisuride, ELISA of supernatant; format: in vivo, Patienten
Method: as §1, §2, §3

Zytokin-Freisetzung = assay: In vitro cytokine release in whole-blood assays co-incubated with lisuride and PHA; format: cell-based, gesunden jungen Freiwilligen; details: whole blood of 10 healthy young volunteers; without lisuride vs low, therapeutic and toxic lisuride concentration, together with PHA
Method: as §1
(§4) Von 10 gesunden jungen Freiwilligen wurden Vollblut-Assays (s.o.) mit 4 verschiedenen Konzentrationen von Lisurid zusammen mit dem Stimulans (PHA) inkubiert. […] Dies läßt vermuten, daß es sich bei den Patientendaten nicht um kurzzeitige Effekte der Substanz auf die immunkompetenten Zellen (vor allem T-Lymphozyten und NK-Zellen) handelt. Vielmehr werden über Rezeptor/postrezeptorische Mechanismen Effekte auf die Freisetzung und/oder Synthese von IFN-γ und anderen Faktoren vermittelt. Auch ein direkter oder indirekter Effekt auf das Genom ist möglich. Für die therapeutische Anwendung erwünscht ist die beobachtete Anreicherung von Dopaminagonisten in den Membranen von weißen Blutzellen, wie sie im Falle von Lisurid durch die UV-Fluoreszenz dieses Moleküls nachweisbar ist.

Tumoren = assay: Two-year treatment of rodents: tumour frequency and severity, survival; format: in vivo, Mäusen und Ratten; details: male and female mice and rats, various doses over 2 years; for Häufigkeit und Schwere von verschiedenen Tumoren: partly dose-dependent, leukaemias, lymphomas, tumours of mammae, pituitary, ovaries
From the text: In vivo-Untersuchungen an Nager-Gruppen von männlichen und weiblichen Mäusen und Ratten wurden mit verschiedenen Dosen von Lisurid und Tergurid über 2 Jahre behandelt. […] Dies läßt eine therapeutisch erwünschte lokale Freisetzung dieser Faktoren bei niederer Dosierung von Dopaminagonisten erwarten, die erst bei excessiver Dosierung zur Ausschwemmung ins Blut gelangt und damit die Nebenwirkung einer direkten IFN-γ-Anwendung bewirkt.

[2] = tested on: Membranen von weißen Blutzellen; assay: Accumulation in membranes of white blood cells, detected by UV fluorescence; details: UV fluorescence of the molecule
From the text: as §4

[3] = lisuride group (n=18, median age 61) vs young healthy group (under 50 years) and older healthy group (over 65 years)

For `CCN(CC)C(=O)NC1C=C2c3cccc4[nH]cc(c34)CC2N(C)C1` (centres unmarked) [Lisurid], the “Befunde bei extrem hoher parenteraler Applikation” value [1] was “wie sie für eine Überproduktion oder Freisetzung von IFN-γ und vergleichbarer Substanzen typisch sind”, the “IFN-γ Produktion nach mitogener Stimulation” value (IFN-γ; [3]) was “signifikant erhöht” and the “IFN-γ Freisetzung nach PHA-Stimulation” value (IFN-γ; lisuride-treated patients (n=18, M. Parkinson or Dystonie) vs 11 healthy age-matched controls, PHA 72 h, Mann-Whitney p=0.039) was “signifikant erhöht”. The “α-TNF Produktion nach mitogener Stimulation” value (TNF-α; [3]) was “signifikant erhöht”, the “TNF-α Freisetzung” value (TNF-α; lisuride-treated patients (n=18) vs 11 healthy age-matched controls, PHA 24 h, Mann-Whitney p=0.055) was “deutlich erhöht” and the “Zytokin-Freisetzung bei Koinkubation mit Lisurid” value (Zytokin-Freisetzung) was “keine Unterschiede”. The “Anteil überlebender Tiere” value (Tumoren) was “signifikante Erhöhung”, the “Häufigkeit und Schwere von verschiedenen Tumoren” value (Tumoren) was “signifikante Reduktion” and the “Anreicherung in den Membranen von weißen Blutzellen” value [2] was “nachweisbar”.
With `CCN(CC)C(=O)N[C@H]1C[C@@H]2c3cccc4[nH]cc(c34)C[C@H]2N(C)C1` [Tergurid] the “Anteil überlebender Tiere” value (Tumoren) was “signifikante Erhöhung” and the “Häufigkeit und Schwere von verschiedenen Tumoren” value (Tumoren) was “signifikante Reduktion”.
